# Measured values: patent US7569578B2, “Heterocyclic anti-migraine agents” (Bristol-Meyers Squibb Company, priority 2003, dated 2009)
# pIC50: −log10 of the molar value.
# Target: T1, Human CGRP1 Receptor (Homo sapiens, UniProt O60894+Q16602)
# T1 construct: endogenous in cells; host or cells: SK-N-MC cells (membrane homogenate)
# Assay: CGRP Binding Assay ([125I]-CGRP radioligand displacement, SK-N-MC membrane homogenate)
# Details: not given
# Procedure: Tissue Culture. SK-N-MC cells were grown at 37° C. in 5% CO2 as a monolayer in medium consisting of MEM with Earle's salts and L-glutamine (Gibco) supplemented with 10% fetal bovine serum (Gibco).
# Cell Pellets. […] The cells were transferred from plates to polypropylene tubes (16×100 mm) and homogenized using a polytron. Homogenates were centrifuged at 32,000×g for 30 min. The pellets were resuspended in cold hypotonic lysis buffer with 0.1% mammalian protease inhibitor cocktail (Sigma) and assayed for protein concentration. The SK-N-MC homogenate was then aliquoted and stored at −80° C. until needed.
# Radioligand Binding Assay. The compounds of invention were solubilized and carried through serial dilutions using 100% DMSO. Aliquots from the compound serial dilutions were further diluted 25 fold into assay buffer (50 mM Tris-Cl pH 7.5, 5 mM MgCl2, 0.005% Triton X-100) and transferred (volume 50 μl) into 96 well assay plates. […] SK-N-MC pellets were thawed, diluted in assay buffer with fresh 0.1% mammalian protease inhibitor cocktail (Sigma), and homogenized again. SK-N-MC homogenate (5 μg/well) was added in a volume of 100 μl. The assay plates were then incubated at room temperature for 2 h. Assays were stopped by addition of excess cold wash buffer (20 mM Tris-Cl pH 7.5, 0.1% BSA) immediately followed by filtration over glass fiber filters (Whatman GF/B) previously soaked in 0.5% PEI. Non-specific binding was defined with 1 μM beta-CGRP. Protein bound radioactivity was determined using a gamma or scintillation counter.
# T1 sequence (Q16602 23-461): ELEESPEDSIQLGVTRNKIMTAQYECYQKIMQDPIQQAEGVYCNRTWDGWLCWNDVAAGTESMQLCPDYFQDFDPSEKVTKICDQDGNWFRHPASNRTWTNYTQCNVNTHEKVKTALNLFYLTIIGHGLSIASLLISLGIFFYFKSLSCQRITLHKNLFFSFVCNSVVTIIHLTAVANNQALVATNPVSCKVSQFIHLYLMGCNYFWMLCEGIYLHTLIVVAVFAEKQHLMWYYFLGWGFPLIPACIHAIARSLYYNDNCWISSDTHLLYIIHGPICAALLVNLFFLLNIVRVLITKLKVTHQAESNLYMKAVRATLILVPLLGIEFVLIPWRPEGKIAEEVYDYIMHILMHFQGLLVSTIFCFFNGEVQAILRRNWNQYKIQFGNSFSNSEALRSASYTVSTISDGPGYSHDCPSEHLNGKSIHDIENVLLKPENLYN
# T1 sequence (O60894 27-148): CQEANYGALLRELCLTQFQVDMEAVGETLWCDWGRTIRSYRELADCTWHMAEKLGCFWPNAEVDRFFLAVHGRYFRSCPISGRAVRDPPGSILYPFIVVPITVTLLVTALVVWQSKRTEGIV
row,Compound,pIC50
1,"Cc1cc(CC(NC(=O)N2CCC(N3Cc4ccccc4NC3=O)CC2)c2nccn2Cc2ccccc2)cc2cn[nH]c12 (racemic) [Example 67, (±)-N-(1-(1-Benzyl-1H-imidazol-2-yl)-2-(7-methyl-1H-indazol-5-yl)ethyl)-4-(2-oxo-1,2-dihydroquinazolin-3(4H)-yl)piperidine-1-carboxamide]",> 8.00

# Same assay, conditions: [125I]-CGRP displacement, SK-N-MC homogenate, room temperature 2 h; read-out: Human CGRP1 Receptor IC50
row,Compound,pIC50
1,"Cc1cc(CC(CC(=O)N2CCC(N3Cc4ccccc4NC3=O)CC2)c2ccc(C=O)cn2)cc2cn[nH]c12 (racemic) [Example 28, (±)-6-(1-(7-Methyl-1H-indazol-5-yl)-4-oxo-4-(4-(2-oxo-1,2-dihydroquinazolin-3(4H)-yl)piperidin-1-yl)butan-2-yl)nicotinaldehyde]",> 8.00
2,"Cc1cc(CC(CC(=O)N2CCC(N3Cc4ccccc4NC3=O)CC2)c2ccc(CN3CCCCC3)cn2)cc2cn[nH]c12 (racemic) [Example 29, (±)-3-(1-(4-(7-Methyl-1H-indazol-5-yl)-3-(5-(piperidin-1-ylmethyl)pyridin-2-yl)butanoyl)piperidin-4-yl)-3,4-dihydroquinazolin-2(1H)-one]",> 8.00
3,"Cc1cc(CC(NC(=O)N2CCC(N3Cc4ccccc4NC3=O)CC2)c2cccc(Br)n2)cc2cn[nH]c12 (racemic) [Example 30, (±)-N-(1-(6-Bromopyridin-2-yl)-2-(7-methyl-1H-indazol-5-yl)ethyl)-4-(2-oxo-1,2-dihydroquinazolin-3(4H)-yl)piperidine-1-carboxamide]",> 8.00
4,"Cc1cc(CC(NC(=O)N2CCC(N3Cc4ccccc4NC3=O)CC2)c2ccccn2)cc2cn[nH]c12 (racemic) [Example 31, (±)-N-(2-(7-Methyl-1H-indazol-5-yl)-1-(pyridin-2-yl)ethyl)-4-(2-oxo-1,2-dihydroquinazolin-3(4H)-yl)piperidine-1-carboxamide]",> 8.00
5,"Cc1cc(CC(NC(=O)N2CCC(N3Cc4ccccc4NC3=O)CC2)c2cc([N+](=O)[O-])ccn2)cc2cn[nH]c12 (racemic) [Example 32, (±)-N-(2-(7-Methyl-1H-indazol-5-yl)-1-(4-nitropyridin-2-yl)ethyl)-4-(2-oxo-1,2-dihydroquinazolin-3(4H)-yl)piperidine-1-carboxamide]",> 8.00
6,"Cc1cc(CC(NC(=O)N2CCC(N3Cc4ccccc4NC3=O)CC2)c2cc(F)ccn2)cc2cn[nH]c12 (racemic) [Example 33, (±)-N-(1-(4-Fluoropyridin-2-yl)-2-(7-methyl-1H-indazol-5-yl)ethyl)-4-(2-oxo-1,2-dihydroquinazolin-3(4H)-yl)piperidine-1-carboxamide]",> 8.00
7,"Cc1cc(CC(NC(=O)N2CCC(N3Cc4ccccc4NC3=O)CC2)c2ccc3ccccc3n2)cc2cn[nH]c12 (racemic) [Example 34, (±)-N-(2-(7-Methyl-1H-indazol-5-yl)-1-(quinolin-2-yl)ethyl)-4-(2-oxo-1,2-dihydroquinazolin-3(4H)-yl)piperidine-1-carboxamide]",> 8.00
8,"Cc1cc(CC(NC(=O)N2CCC(N3Cc4cccc(F)c4NC3=O)CC2)c2ccc3ccccc3n2)cc2cn[nH]c12 (racemic) [Example 35, (±)-4-(8-Fluoro-2-oxo-1,2-dihydroquinazolin-3(4H)-yl)-N-(2-(7-methyl-1H-indazol-5-yl)-1-(quinolin-2-yl)ethyl)piperidine-1-carboxamide]",> 8.00
9,"Cc1cc(CC(OC(=O)N2CCC(N3Cc4ccccc4NC3=O)CC2)c2cccc(OC(C)(C)C)n2)cc2cn[nH]c12 (racemic) [Example 41, (±)-1-(6-tert-Butoxypyridin-2-yl)-2-(7-methyl-1H-indazol-5-yl)ethyl 4-(2-oxo-1,2-dihydroquinazolin-3(4H)-yl)piperidine-1-carboxylate]",6.00 to 7.00

# Now from value to compound:
row,pIC50,Compound
1,7.00 to 8.00,"Cc1cc(CC(NC(=O)N2CCC(N3Cc4ccccc4NC3=O)CC2)c2cccc(-c3ccccc3)n2)cc2cn[nH]c12 (racemic) [Example 37, (±)-N-(2-(7-Methyl-1H-indazol-5-yl)-1-(6-phenylpyridin-2-yl)ethyl)-4-(2-oxo-1,2-dihydroquinazolin-3(4H)-yl)piperidine-1-carboxamide]"
2,> 8.00,"Cc1cccc(C(Cc2cc(C)c3[nH]ncc3c2)NC(=O)N2CCC(N3Cc4ccccc4NC3=O)CC2)n1 (racemic) [Example 38, (±)-N-(2-(7-Methyl-1H-indazol-5-yl)-1-(6-methylpyridin-2-yl)ethyl)-4-(2-oxo-1,2-dihydroquinazolin-3(4H)-yl)piperidine-1-carboxamide]"
3,> 8.00,"Cc1cc(CC(OC(=O)N2CCC(N3Cc4cccc(F)c4NC3=O)CC2)c2cccc(Br)n2)cc2cn[nH]c12 (racemic) [Example 39, (±)-1-(6-Bromopyridin-2-yl)-2-(7-methyl-1H-indazol-5-yl)ethyl 4-(8-fluoro-2-oxo-1,2-dihydroquinazolin-3(4H)-yl)piperidine-1-carboxylate]"
4,> 8.00,"Cc1cc(CC(OC(=O)N2CCC(N3Cc4ccccc4NC3=O)CC2)c2cccc(Br)n2)cc2cn[nH]c12 (racemic) [Example 40, (±)-1-(6-Bromopyridin-2-yl)-2-(7-methyl-1H-indazol-5-yl)ethyl 4-(2-oxo-1,2-dihydroquinazolin-3(4H)-yl)piperidine-1-carboxylate]"
5,6.00 to 7.00,"Cc1cc(CC(OC(=O)N2CCC(N3Cc4ccccc4NC3=O)CC2)c2cccc(=O)[nH]2)cc2cn[nH]c12 (racemic) [Example 42, (±)-2-(7-Methyl-1H-indazol-5-yl)-1-(6-oxo-1,6-dihydropyridin-2-yl)ethyl 4-(2-oxo-1,2-dihydroquinazolin-3(4H)-yl)piperidine-1-carboxylate]"
6,7.00 to 8.00,"Cc1cc(CC(OC(=O)N2CCC(N3Cc4cccc(F)c4NC3=O)CC2)c2cccc(CC(C)C)n2)cc2cn[nH]c12 (racemic) [Example 43, (±)-1-(6-Isobutylpyridin-2-yl)-2-(7-methyl-1H-indazol-5-yl)ethyl 4-(8-fluoro-2-oxo-1,2-dihydroquinazolin-3(4H)-yl)piperidine-1-carboxylate]"
7,> 8.00,"Cc1cc(CC(OC(=O)N2CCC(N3Cc4cccc(F)c4NC3=O)CC2)c2cccc(Cc3cc(F)cc(F)c3)n2)cc2cn[nH]c12 (racemic) [Example 44, (±)-1-(6-(3,5-Difluorobenzyl)pyridin-2-yl)-2-(7-methyl-1H-indazol-5-yl)ethyl 4-(8-fluoro-2-oxo-1,2-dihydroquinazolin-3(4H)-yl)piperidine-1-carboxylate]"
8,> 8.00,"Cc1cc(CC(OC(=O)N2CCC(N3Cc4cccc(F)c4NC3=O)CC2)c2cccc(C#N)n2)cc2cn[nH]c12 (racemic) [Example 45, (±)-1-(6-Cyanopyridin-2-yl)-2-(7-methyl-1H-indazol-5-yl)ethyl 4-(8-fluoro-2-oxo-1,2-dihydroquinazolin-3(4H)-yl)piperidine-1-carboxylate]"
9,> 8.00,"Cc1cc(CC(OC(=O)N2CCC(N3Cc4ccccc4NC3=O)CC2)c2cc(CO)ccn2)cc2cn[nH]c12 (racemic) [Example 46, (±)-1-(4-(Hydroxymethyl)pyridin-2-yl)-2-(7-methyl-1H-indazol-5-yl)ethyl 4-(2-oxo-1,2-dihydroquinazolin-3(4H)-yl)piperidine-1-carboxylate]"
10,> 8.00,"Cc1cc(CC(OC(=O)N2CCC(N3Cc4ccccc4NC3=O)CC2)c2cc(C=O)ccn2)cc2cn[nH]c12 (racemic) [Example 47, (±)-1-(4-Formylpyridin-2-yl)-2-(7-methyl-1H-indazol-5-yl)ethyl 4-(2-oxo-1,2-dihydroquinazolin-3(4H)-yl)piperidine-1-carboxylate]"
11,7.00 to 8.00,"Cc1cc(CC(OC(=O)N2CCC(N3Cc4ccccc4NC3=O)CC2)c2cc(C(=O)O)ccn2)cc2cn[nH]c12 (racemic) [Example 48, (±)-2-(2-(7-Methyl-H-indazol-5-yl)-1-(4-(2-oxo-1,2-dihydroquinazolin-3(4H)-yl)piperidine-1-carbonyloxy)ethyl)isonicotinic acid]"
12,> 8.00,"Cc1cc(CC(OC(=O)N2CCC(N3Cc4ccccc4NC3=O)CC2)c2cc(C(=O)N3CCCCC3)ccn2)cc2cn[nH]c12 (racemic) [Example 49, (±)-2-(7-Methyl-1H-indazol-5-yl)-1-(4-(piperidine-1-carbonyl)pyridin-2-yl)ethyl 4-(2-oxo-1,2-dihydroquinazolin-3(4H)-yl)piperidine-1-carboxylate]"
13,7.00 to 8.00,"Cc1cc(CC(NC(=O)N2CCC(N3Cc4ccccc4NC3=O)CC2)c2ncc[nH]2)cc2cn[nH]c12 (racemic) [Example 65, (±)-N-(1-(1H-Imidazol-2-yl)-2-(7-methyl-1H-indazol-5-yl)ethyl)-4-(2-oxo-1,2-dihydroquinazolin-3(4H)-yl)piperidine-1-carboxamide]"
14,> 8.00,"Cc1cc(CC(NC(=O)N2CCC(N3Cc4ccccc4NC3=O)CC2)c2nccn2C)cc2cn[nH]c12 (racemic) [Example 66, (±)-N-(1-(1-Methyl-1H-imidazol-2-yl)-2-(7-methyl-1H-indazol-5-yl)ethyl)-4-(2-oxo-1,2-dihydroquinazolin-3(4H)-yl)piperidine-1-carboxamide]"
